Common to all, as to format: functional
In experiment [1] the test system is Staphylococcus aureus. Nature of the experiment: Antibacterial activity against Staphylococcus aureus 4116 producing betalactamase PC1 by broth microdilution method. Background: In broth dilution the organism is exposed to a series of concentrations in liquid medium.
In experiment [2] the test system is Serratia marcescens. Nature of the experiment: Antibacterial activity against Serratia marcescens 4104 producing beta lactamase AmpC by broth microdilution method.
Another experiment has as its system Morganella morganii. Briefly: Antibacterial activity against Morganella morganii 2574 producing beta lactamase AmpC by broth microdilution method.
In experiment [3] the test system is Pseudomonas aeruginosa. Briefly: Antibacterial activity against Pseudomonas aeruginosa HPA101-1477 producing beta lactamase IMP1 by broth microdilution method.
Experiment [4] relates to Serratia marcescens. Briefly: Antibacterial activity against Serratia marcescens 7554 producing beta lactamase SME3 by broth microdilution method.
In experiment [5] the test system is Pseudomonas aeruginosa. Nature of the experiment: Antibacterial activity against Pseudomonas aeruginosa 7052 producing beta lactamase VIM2 by broth microdilution method.
In experiment [6] the test system is Pseudomonas aeruginosa. Nature of the experiment: Antibacterial activity against Pseudomonas aeruginosa 4352 producing beta lactamase AmpC by broth microdilution method.
The subject of the next experiment is Providencia stuartii. Briefly: Antibacterial activity against Providencia stuartii 2772 producing beta lactamase AmpC by broth microdilution method.
Experiment [7] has as its system Escherichia coli. Briefly: Antibacterial activity against Escherichia coli 6226 producing beta lactamase KPC2 by broth microdilution method.
Experiment [8] has as its system Enterobacter cloacae. Nature of the experiment: Antibacterial activity against Enterobacter cloacae 4092 producing beta lactamase AmpC (E2) by broth microdilution method.
Experiment [9] relates to Pseudomonas aeruginosa. Nature of the experiment: Antibacterial activity against Pseudomonas aeruginosa MK-1184 producing beta lactamase AmpC by broth microdilution method.
The next experiment relates to Klebsiella oxytoca. Briefly: Antibacterial activity against Klebsiella oxytoca 4076 producing beta lactamase K1 by broth microdilution method.
Experiment [10] has as its system Staphylococcus aureus. Briefly: Antibacterial activity against methicillin-resistant Staphylococcus aureus.
For experiment [11], the system named is Pseudomonas aeruginosa. Briefly: Antibacterial activity against Pseudomonas aeruginosa 4083 producing beta lactamase OXA10 by broth microdilution method.
In experiment [12] the test system is Pseudomonas aeruginosa. Nature of the experiment: Antibacterial activity against Pseudomonas aeruginosa 18SH producing beta lactamase AmpC by broth microdilution method.
Experiment [13] concerns Escherichia coli. Nature of the experiment: Antibacterial activity against Escherichia coli producing beta lactamase TEM1 by broth microdilution method.
Experiment [14] concerns Enterobacter cloacae. Nature of the experiment: Antibacterial activity against Enterobacter cloacae 4080 producing beta lactamase AmpC (P99) by broth microdilution method.
For experiment [15], the system named is Enterobacter cloacae. Nature of the experiment: Antibacterial activity against Enterobacter cloacae 908R producing beta lactamase AmpC by broth microdilution method.
The subject of experiment [16] is Enterobacter cloacae. Nature of the experiment: Antibacterial activity against Enterobacter cloacae 4081 producing beta lactamase AmpC (E2) by broth microdilution method.
Experiment [17] concerns Klebsiella pneumoniae. Briefly: Antibacterial activity against Klebsiella pneumoniae 4238 producing beta lactamase SHV1 by broth microdilution method.
The test system of experiment [18] is Staphylococcus aureus. Briefly: Antibacterial activity against methicillin-susceptible Staphylococcus aureus.
Experiment [19] has as its system Klebsiella pneumoniae. Nature of the experiment: Antibacterial activity against Klebsiella pneumoniae 4094 producing beta lactamase TEM26 by broth microdilution method.
In experiment [20] the test system is Escherichia coli. Briefly: Antibacterial activity against Escherichia coli 11732 producing beta lactamase CTX-M-15 by broth microdilution method.

One may read the MIC as the lowest concentration that inhibits growth of the organism. A high value points to a need for much substance. Broadly, the MIC90 is an inhibitory concentration at the 90% level, which refers to growth in some studies and to a panel of isolates in others. Low readings indicate greater potency, high ones weaker potency.

Converted amounts (≈) assume the structure as drawn.

Turning to `Nc1nc(/C(=N/O)C(=O)N[C@@H]2C(=O)N3C(C(=O)O)=C(/C=C4\CCN([C@@H]5CCNC5)C4=O)CS[C@H]23)ns1` [CEFTOBIPROLE], the MIC in the experiment with Staphylococcus aureus [1] is 0.25 µg/mL (≈ 0.468 µM); in the experiment with Serratia marcescens [2], 0.12 µg/mL (≈ 0.224 µM); against Morganella morganii, 0.03 µg/mL (≈ 0.0561 µM); with Pseudomonas aeruginosa [3], over 32 µg/mL; in the experiment on Serratia marcescens [4] it was 0.25 µg/mL (≈ 0.468 µM); against Pseudomonas aeruginosa [5], over 128 µg/mL. In addition, the MIC was 4 µg/mL (≈ 7.48 µM) against Pseudomonas aeruginosa [6]; 0.015 µg/mL (≈ 0.0281 µM) against Providencia stuartii; 16 µg/mL (≈ 29.9 µM) against Escherichia coli [7]; 0.12 µg/mL (≈ 0.224 µM) against Enterobacter cloacae [8]; 32 µg/mL (≈ 59.9 µM) in the experiment with Pseudomonas aeruginosa [9]; over 32 µg/mL against Klebsiella oxytoca. For the same compound, the MIC in the experiment with Pseudomonas aeruginosa [11] was 128 µg/mL (≈ 239 µM); with Pseudomonas aeruginosa [12] it was 16 µg/mL (≈ 29.9 µM); against Escherichia coli [13], 0.5 µg/mL (≈ 0.935 µM); against Enterobacter cloacae [14], 2 µg/mL (≈ 3.74 µM); in the experiment on Enterobacter cloacae [15], 4 µg/mL (≈ 7.48 µM); in the experiment with Enterobacter cloacae [16], 1 µg/mL (≈ 1.87 µM). Moreover, the results for the minimum inhibitory concentration (MIC) against Klebsiella pneumoniae [17], in the experiment with Klebsiella pneumoniae [19] and in the experiment on Escherichia coli [20] were 0.5 µg/mL (≈ 0.935 µM), 0.25 µg/mL (≈ 0.468 µM) and over 128 µg/mL, respectively. Besides, the MIC90 in the experiment with Staphylococcus aureus [10] is 2 µg/mL (≈ 3.74 µM); with Staphylococcus aureus [18], 0.5 µg/mL (≈ 0.935 µM).

In the case of `CO/N=C(\C(=O)N[C@@H]1C(=O)N2C(C(=O)[O-])=C(C[N+]3(C)CCCC3)CS[C@H]12)c1csc(N)n1`, the MIC with Staphylococcus aureus [1] is 2 µg/mL (≈ 4.16 µM); against Serratia marcescens [2], 0.12 µg/mL (≈ 0.25 µM); in the experiment with Morganella morganii, 0.03 µg/mL (≈ 0.0624 µM); against Pseudomonas aeruginosa [3], over 32 µg/mL; in the experiment on Serratia marcescens [4], 0.25 µg/mL (≈ 0.52 µM); with Pseudomonas aeruginosa [5], 128 µg/mL (≈ 266 µM). The MIC in the experiment on Pseudomonas aeruginosa [6] is 2 µg/mL (≈ 4.16 µM); in the experiment with Providencia stuartii, 0.25 µg/mL (≈ 0.52 µM); in the experiment with Escherichia coli [7], 16 µg/mL (≈ 33.3 µM); in the experiment on Pseudomonas aeruginosa [9] it was 32 µg/mL (≈ 66.6 µM); with Klebsiella oxytoca, 2 µg/mL (≈ 4.16 µM); with Pseudomonas aeruginosa [11] it was 8 µg/mL (≈ 16.6 µM). Moreover, the MIC against Pseudomonas aeruginosa [12] stood at 32 µg/mL (≈ 66.6 µM); against Escherichia coli [13], 0.12 µg/mL (≈ 0.25 µM); with Klebsiella pneumoniae [17] it was 0.25 µg/mL (≈ 0.52 µM); in the experiment on Klebsiella pneumoniae [19], 4 µg/mL (≈ 8.32 µM); against Escherichia coli [20], 16 µg/mL (≈ 33.3 µM).

`CC(C)(O/N=C(\C(=O)N[C@@H]1C(=O)N2C(C(=O)[O-])=C(C[n+]3ccccc3)CS[C@H]12)c1csc(N)n1)C(=O)O` [CEFTAZIDIME]: the MIC in the experiment on Staphylococcus aureus [1] is 4 µg/mL (≈ 7.32 µM); against Serratia marcescens [2], 0.25 µg/mL (≈ 0.457 µM); in the experiment with Morganella morganii, 1 µg/mL (≈ 1.83 µM); against Pseudomonas aeruginosa [3] it was over 32 µg/mL; with Serratia marcescens [4], 0.5 µg/mL (≈ 0.915 µM); in the experiment with Pseudomonas aeruginosa [5], 64 µg/mL (≈ 117 µM). The MIC against Pseudomonas aeruginosa [6] was 4 µg/mL (≈ 7.32 µM); against Providencia stuartii, 4 µg/mL (≈ 7.32 µM); against Escherichia coli [7], 32 µg/mL (≈ 58.5 µM); against Enterobacter cloacae [8], 1 µg/mL (≈ 1.83 µM); in the experiment on Pseudomonas aeruginosa [9] it was 32 µg/mL (≈ 58.5 µM); in the experiment on Klebsiella oxytoca it was 0.5 µg/mL (≈ 0.915 µM). For the same compound, the MIC against Pseudomonas aeruginosa [11] is 2 µg/mL (≈ 3.66 µM); against Pseudomonas aeruginosa [12], 32 µg/mL (≈ 58.5 µM); against Escherichia coli [13], 0.5 µg/mL (≈ 0.915 µM); with Enterobacter cloacae [14] it was 64 µg/mL (≈ 117 µM); against Enterobacter cloacae [15] it was over 64 µg/mL; against Enterobacter cloacae [16], over 128 µg/mL. Further, the MIC in the experiment on Klebsiella pneumoniae [17] is 2 µg/mL (≈ 3.66 µM); in the experiment on Klebsiella pneumoniae [19] it was over 256 µg/mL; in the experiment with Escherichia coli [20] it was 32 µg/mL (≈ 58.5 µM).

For the origin of these results see ChEMBL document CHEMBL1143427, “Interactions of ceftobiprole with beta-lactamases from molecular classes A to D” (Antimicrob Agents Chemother, 2007).
